Assay results from PubChem BioAssay (NCI).
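Dose response: 5 concentrations. Exposure: 48 h. Format: 96-well plates. Endpoint: linear interpolation; highest concentration if not reached. TGI denotes the concentration required for complete inhibition of growth.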

Columns and labels:
Experiment in all cases: inhibition of tumour cell growth, NCI panel, 48 h
786-0 renal = test system: 786-0 renal
A498 renal = test system: A498 renal
A549 NSCLC = test system: A549 NSCLC
ACHN renal = test system: ACHN renal
BT-549 breast = test system: BT-549 breast
CAKI-1 renal = test system: CAKI-1 renal
CCRF-CEM leukemia = test system: CCRF-CEM leukemia
COLO 205 colon = test system: COLO 205 colon
DU-145 prostate = test system: DU-145 prostate
HCT-116 colon = test system: HCT-116 colon
HCT-15 colon = test system: HCT-15 colon
HL-60(TB) leukemia = test system: HL-60(TB) leukemia
HOP-62 NSCLC = test system: HOP-62 NSCLC
HOP-92 NSCLC = test system: HOP-92 NSCLC
HT29 colon = test system: HT29 colon
IGROV1 ovarian = test system: IGROV1 ovarian
K-562 leukemia = test system: K-562 leukemia
KM12 colon = test system: KM12 colon
M14 melanoma = test system: M14 melanoma
MALME-3M melanoma = test system: MALME-3M melanoma
MCF7 breast = test system: MCF7 breast
MDA-MB-231 breast = test system: MDA-MB-231 breast
MDA-MB-435 = test system: MDA-MB-435
MDA-N = test system: MDA-N
MOLT-4 leukemia = test system: MOLT-4 leukemia
NCI-H226 lung = test system: NCI-H226 lung
NCI-H460 lung = test system: NCI-H460 lung
NCI-H522 lung = test system: NCI-H522 lung
NCI/ADR-RES ovarian = test system: NCI/ADR-RES ovarian
OVCAR-3 ovarian = test system: OVCAR-3 ovarian
OVCAR-4 ovarian = test system: OVCAR-4 ovarian
OVCAR-5 ovarian = test system: OVCAR-5 ovarian
OVCAR-8 ovarian = test system: OVCAR-8 ovarian
PC-3 prostate = test system: PC-3 prostate
RPMI-8226 leukemia = test system: RPMI-8226 leukemia
RXF 393 renal = test system: RXF 393 renal
SF-268 CNS = test system: SF-268 CNS
SF-295 CNS = test system: SF-295 CNS
SF-539 CNS = test system: SF-539 CNS
SK-MEL-2 melanoma = test system: SK-MEL-2 melanoma
SK-MEL-28 melanoma = test system: SK-MEL-28 melanoma
SK-MEL-5 melanoma = test system: SK-MEL-5 melanoma
SK-OV-3 ovarian = test system: SK-OV-3 ovarian
SN12C renal = test system: SN12C renal
SR leukemia = test system: SR leukemia
T-47D breast = test system: T-47D breast
TK-10 renal = test system: TK-10 renal
U251 CNS = test system: U251 CNS
UACC-257 melanoma = test system: UACC-257 melanoma
UACC-62 melanoma = test system: UACC-62 melanoma
UO-31 renal = test system: UO-31 renal
EKVX NSCLC = test system: EKVX NSCLC
HCC-2998 colon = test system: HCC-2998 colon
LOX IMVI melanoma = test system: LOX IMVI melanoma
NCI-H23 lung = test system: NCI-H23 lung
SNB-19 CNS = test system: SNB-19 CNS
SNB-75 CNS = test system: SNB-75 CNS
SW-620 colon = test system: SW-620 colon
HS 578T breast = test system: HS 578T breast

With `CCOC(=O)C(/C(=N/S(=O)(=O)c1cc(C)c(Cl)cc1[S-])[n+]1ccc(N(C)C)cc1)=C(/O)c1ccc([N+](=O)[O-])cc1` the TGI (786-0 renal) was > 100 µM, the TGI (A498 renal) was 60.4 µM and the TGI (A549 NSCLC) was > 100 µM. The TGI (ACHN renal) was 71.6 µM, the TGI (BT-549 breast) was 92.7 µM and the TGI (CAKI-1 renal) was 99.7 µM. For the same compound, the TGI (CCRF-CEM leukemia) was 87.2 µM, the TGI (COLO 205 colon) was 90.2 µM and the TGI (DU-145 prostate) was > 100 µM. The TGI (HCT-116 colon) was 36.7 µM, the TGI (HCT-15 colon) was > 100 µM and the TGI (HL-60(TB) leukemia) was 64.5 µM. It also gave a TGI (HOP-62 NSCLC) of 78.7 µM, a TGI (HOP-92 NSCLC) of 23.9 µM and a TGI (HT29 colon) of 55.4 µM. For the same compound, the TGI (IGROV1 ovarian) was > 100 µM, the TGI (K-562 leukemia) was > 100 µM and the TGI (KM12 colon) was 82.7 µM. The TGI (M14 melanoma) was 96.6 µM, the TGI (MALME-3M melanoma) was 40.5 µM and the TGI (MCF7 breast) was > 100 µM. The TGI (MDA-MB-231 breast) was > 100 µM, the TGI (MDA-MB-435) was > 100 µM and the TGI (MDA-N) was > 100 µM. The TGI (MOLT-4 leukemia) was > 100 µM, the TGI (NCI-H226 lung) was > 100 µM and the TGI (NCI-H460 lung) was > 100 µM. For the same compound, the TGI (NCI-H522 lung) was 34.6 µM, the TGI (NCI/ADR-RES ovarian) was > 100 µM and the TGI (OVCAR-3 ovarian) was > 100 µM. For the same compound, the TGI (OVCAR-4 ovarian) was 88.6 µM, the TGI (OVCAR-5 ovarian) was > 100 µM and the TGI (OVCAR-8 ovarian) was > 100 µM. The TGI (PC-3 prostate) was 68.6 µM, the TGI (RPMI-8226 leukemia) was 63.7 µM and the TGI (RXF 393 renal) was > 100 µM. For the same compound, the TGI (SF-268 CNS) was > 100 µM, the TGI (SF-295 CNS) was 54.1 µM and the TGI (SF-539 CNS) was 53.9 µM. The TGI (SK-MEL-2 melanoma) was 28.3 µM, the TGI (SK-MEL-28 melanoma) was 83.5 µM and the TGI (SK-MEL-5 melanoma) was > 100 µM. The TGI (SK-OV-3 ovarian) was 68.4 µM, the TGI (SN12C renal) was > 100 µM and the TGI (SR leukemia) was > 100 µM. The TGI (T-47D breast) was > 100 µM, the TGI (TK-10 renal) was 58.7 µM and the TGI (U251 CNS) was > 100 µM. For the same compound, the TGI (UACC-257 melanoma) was 25.3 µM, the TGI (UACC-62 melanoma) was > 100 µM and the TGI (UO-31 renal) was > 100 µM.
For `COc1ccccc1NC(=S)NN=C(C)c1cccc(C(C)=NNC(=S)Nc2ccccc2OC)n1`, the TGI (786-0 renal) was 37.7 µM, the TGI (A498 renal) was 93 µM and the TGI (A549 NSCLC) was > 100 µM. For the same compound, the TGI (ACHN renal) was 64.3 µM, the TGI (CAKI-1 renal) was > 100 µM and the TGI (CCRF-CEM leukemia) was > 100 µM. For the same compound, the TGI (COLO 205 colon) was > 100 µM, the TGI (DU-145 prostate) was > 100 µM and the TGI (EKVX NSCLC) was > 100 µM. For the same compound, the TGI (HCC-2998 colon) was > 100 µM, the TGI (HCT-116 colon) was 11.1 µM and the TGI (HCT-15 colon) was > 100 µM. For the same compound, the TGI (HL-60(TB) leukemia) was 99.5 µM, the TGI (HOP-62 NSCLC) was > 100 µM and the TGI (HOP-92 NSCLC) was 97.7 µM. The TGI (HT29 colon) was > 100 µM, the TGI (IGROV1 ovarian) was > 100 µM and the TGI (K-562 leukemia) was > 100 µM. For the same compound, the TGI (KM12 colon) was > 100 µM, the TGI (LOX IMVI melanoma) was > 100 µM and the TGI (M14 melanoma) was 25.8 µM. The TGI (MALME-3M melanoma) was 40.6 µM, the TGI (MCF7 breast) was > 100 µM and the TGI (MDA-MB-231 breast) was 68.9 µM. The TGI (MDA-MB-435) was > 100 µM, the TGI (MDA-N) was > 100 µM and the TGI (MOLT-4 leukemia) was 74.5 µM. For the same compound, the TGI (NCI-H226 lung) was > 100 µM, the TGI (NCI-H23 lung) was > 100 µM and the TGI (NCI-H460 lung) was > 100 µM. The TGI (NCI-H522 lung) was 97.3 µM, the TGI (NCI/ADR-RES ovarian) was 34.7 µM and the TGI (OVCAR-3 ovarian) was > 100 µM. For the same compound, the TGI (OVCAR-4 ovarian) was 74.3 µM, the TGI (OVCAR-5 ovarian) was > 100 µM and the TGI (OVCAR-8 ovarian) was > 100 µM. The TGI (PC-3 prostate) was > 100 µM, the TGI (RPMI-8226 leukemia) was > 100 µM and the TGI (RXF 393 renal) was 47.6 µM. For the same compound, the TGI (SF-268 CNS) was > 100 µM, the TGI (SF-295 CNS) was > 100 µM and the TGI (SF-539 CNS) was 62.4 µM. The TGI (SK-MEL-2 melanoma) was > 100 µM, the TGI (SK-MEL-28 melanoma) was > 100 µM and the TGI (SK-MEL-5 melanoma) was 32.7 µM. The TGI (SK-OV-3 ovarian) was > 100 µM, the TGI (SN12C renal) was > 100 µM and the TGI (SNB-19 CNS) was > 100 µM. For the same compound, the TGI (SNB-75 CNS) was > 100 µM, the TGI (SR leukemia) was 17.2 µM and the TGI (SW-620 colon) was > 100 µM. The TGI (T-47D breast) was > 100 µM, the TGI (U251 CNS) was > 100 µM and the TGI (UACC-257 melanoma) was 93.9 µM. For the same compound, the TGI (UACC-62 melanoma) was > 100 µM and the TGI (UO-31 renal) was > 100 µM.
For `CCOC(=O)C1Cc2c(cc3c4c(cccc24)N(C(C)=O)C3)N(C)C1` (centres undefined), the TGI (786-0 renal) was > 100 µM, the TGI (A498 renal) was > 100 µM and the TGI (A549 NSCLC) was > 100 µM. The TGI (ACHN renal) was > 100 µM, the TGI (CAKI-1 renal) was > 100 µM and the TGI (CCRF-CEM leukemia) was > 100 µM. For the same compound, the TGI (COLO 205 colon) was > 100 µM, the TGI (DU-145 prostate) was > 100 µM and the TGI (EKVX NSCLC) was > 100 µM. For the same compound, the TGI (HCC-2998 colon) was > 100 µM, the TGI (HCT-116 colon) was > 100 µM and the TGI (HCT-15 colon) was > 100 µM. For the same compound, the TGI (HL-60(TB) leukemia) was > 100 µM, the TGI (HOP-62 NSCLC) was > 100 µM and the TGI (HOP-92 NSCLC) was 99.7 µM. For the same compound, the TGI (HS 578T breast) was 9.07 µM, the TGI (HT29 colon) was > 100 µM and the TGI (IGROV1 ovarian) was > 100 µM. The TGI (K-562 leukemia) was > 100 µM, the TGI (KM12 colon) was > 100 µM and the TGI (LOX IMVI melanoma) was > 100 µM. The TGI (M14 melanoma) was > 100 µM, the TGI (MALME-3M melanoma) was > 100 µM and the TGI (MCF7 breast) was > 100 µM. The TGI (MDA-MB-231 breast) was 5.71 µM, the TGI (MDA-MB-435) was 7.04 µM and the TGI (MDA-N) was 3.29 µM. The TGI (MOLT-4 leukemia) was > 100 µM, the TGI (NCI-H226 lung) was 9.37 µM and the TGI (NCI-H23 lung) was > 100 µM. The TGI (NCI-H460 lung) was > 100 µM, the TGI (NCI-H522 lung) was 1.3 µM and the TGI (OVCAR-3 ovarian) was 3.27 µM. The TGI (OVCAR-4 ovarian) was > 100 µM, the TGI (OVCAR-5 ovarian) was > 100 µM and the TGI (OVCAR-8 ovarian) was > 100 µM. For the same compound, the TGI (PC-3 prostate) was > 100 µM, the TGI (RPMI-8226 leukemia) was > 100 µM and the TGI (RXF 393 renal) was 44.7 µM. For the same compound, the TGI (SF-268 CNS) was > 100 µM, the TGI (SF-295 CNS) was > 100 µM and the TGI (SF-539 CNS) was 10.1 µM. The TGI (SK-MEL-2 melanoma) was > 100 µM, the TGI (SK-MEL-28 melanoma) was > 100 µM and the TGI (SK-MEL-5 melanoma) was > 100 µM. For the same compound, the TGI (SK-OV-3 ovarian) was > 100 µM, the TGI (SN12C renal) was > 100 µM and the TGI (SNB-19 CNS) was > 100 µM. For the same compound, the TGI (SNB-75 CNS) was > 100 µM, the TGI (SR leukemia) was > 100 µM and the TGI (SW-620 colon) was > 100 µM. For the same compound, the TGI (T-47D breast) was > 100 µM, the TGI (TK-10 renal) was > 100 µM and the TGI (U251 CNS) was > 100 µM. For the same compound, the TGI (UACC-257 melanoma) was > 100 µM, the TGI (UACC-62 melanoma) was > 100 µM and the TGI (UO-31 renal) was > 100 µM.
